In brackets after ≈: the same amount, converted by molar mass. Like-named read-outs stand apart in the source and are kept apart here.
Tests used:
M. smegmatis GM22 = assay: microbe, parasite or virus in culture; assay type: cell-based; conditions: Mycolicibacterium smegmatis; for MIC99: M. smegmatis GM22, overproduces NfnB nitroreductase, read-out: MIC99
M. bovis BCG BN2 = assay type: cell-based, Mycobacterium bovis BCG
M. abscessus 2005-0524 = assay: MIC99 by REMA; assay type: cell-based; conditions: Mycobacteroides abscessus, 20050524; M. abscessus 2005-0524; read-out: MIC99
M. vaccae ATCC 15483 = assay: MIC99 by REMA; assay type: cell-based; conditions: Mycolicibacterium vaccae, ATCC15483; M. vaccae ATCC 15483; read-out: MIC99
M. tuberculosis MDR_CHUV = assay: MIC99 by REMA; assay type: cell-based, Mycobacterium tuberculosis; conditions: Mycobacterium tuberculosis; read-out: MIC99
C. glutamicum ATCC 13032 = assay: MIC99 by REMA; assay type: cell-based, Corynebacterium glutamicum; conditions: Corynebacterium glutamicum, ATCC13032; C. glutamicum ATCC 13032; read-out: MIC99
M. smegmatis mc^2155 = assay: MIC99 by REMA; assay type: cell-based, Mycobacterium smegmatis; conditions: Mycolicibacterium smegmatis; M. smegmatis mc^2155; read-out: MIC99
M. avium ATCC 15769 = assay: MIC99 by REMA; assay type: cell-based; conditions: Mycobacterium avium, ATCC15769; M. avium ATCC 15769; read-out: MIC99
M. tuberculosis H37Rv [1] = assay: MIC by resazurin reduction microplate assay (REMA); assay type: cell-based, Mycobacterium tuberculosis; conditions: Mycobacterium tuberculosis; for MIC99: read-out: MIC99
M. massiliense 2005-0484 = assay: MIC99 by REMA; assay type: cell-based; conditions: Mycobacteroides abscessus, 20050484; M. massiliense 2005-0484; read-out: MIC99
M. bolletii 1999-0888 = assay: MIC99 by REMA; assay type: cell-based; conditions: Mycobacteroides abscessus, 19990888; M. bolletii 1999-0888; read-out: MIC99
C. diphtheriae DSM 44123 = assay: MIC99 by REMA; assay type: cell-based, Corynebacterium diphtheriae; conditions: Corynebacterium diphtheriae, DSM44123; C. diphtheriae DSM 44123; read-out: MIC99
M. marinum Strain M [2] = assay: MIC99 by REMA; assay type: cell-based, Mycobacterium marinum; conditions: Mycobacterium marinum; M. marinum Strain M; read-out: MIC99
M. bovis BCG Pasteur = assay: microbe, parasite or virus in culture; assay type: cell-based, Mycobacterium bovis BCG; conditions: Mycobacterium tuberculosis variant bovis BCG, BCG
zebrafish embryos = assay type: in vivo, zebrafish (Danio rerio)
Experimental: On examination of infected zebrafish embryos treated with BTZ043 it was observed that the compound affected embryo development (Fig 6A–G) especially at concentrations above 25 nM. […] These defects were also observed when uninfected embryos were exposed to BTZ043.
Figure 6 Effect of BTZ043 on M. marinum infected zebrafish embryo development. A–D M. marinum infected zebrafish embryos were treated with BTZ043 for 5 days at the concentrations indicated and photographed using a Leica DFC420C camera. The M strain was used for infection. E–F Images of the notochord from untreated and treated zebrafish, arrows indicate developmental abnormalities. G Analysis of zebrafish embryos displaying developmental abnormalities treated with BTZ043 (BTZ) or PBTZ169 (PBTZ) at the concentrations indicated.

[3] = mouse
in vivo = assay: in vivo
Experimental: Table S5. Principal pharmacokinetic properties1
1 See Figure S5 for primary data.
Compound levels were measured in serum from individual female mice (3/time point) that had received a single dose of 25 mg/kg. Maximum concentration (Cmax); area under the curve (AUC); apparent clearance.
Comparative pharmacokinetic analysis. After receiving a single dose
(25 mg/kg) of PBTZ169 or BTZ043 by gavage, groups of three female mice were sacrificed at the times indicated, blood was obtained by cardiac puncture and the drug levels in serum determined by LC-MS/MS technique (limit of quantification 10 μg/L).

[4] = target: T1, purified recombinant M. smegmatis NfnB (Mycolicibacterium smegmatis, UniProt A0R6D0); assay: NfnB-mediated nitroreduction followed by LC-MS; assay type: biochemical
T1 construct: made in house
T1 sequence (A0R6D0 whole entry): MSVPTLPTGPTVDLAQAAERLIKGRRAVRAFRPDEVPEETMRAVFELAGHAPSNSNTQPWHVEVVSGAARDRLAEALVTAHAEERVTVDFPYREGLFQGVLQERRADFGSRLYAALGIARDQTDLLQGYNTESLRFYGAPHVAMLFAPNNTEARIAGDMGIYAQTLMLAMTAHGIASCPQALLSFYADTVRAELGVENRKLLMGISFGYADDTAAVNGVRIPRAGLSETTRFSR

M. tuberculosis DprE1 = M. tuberculosis DprE1 (Mycobacterium tuberculosis, UniProt P9WJF1); assay: DprE1 inhibition, two step peroxidase-coupled assay with Amplex Red; assay type: biochemical; conditions: 5 min incubation, 5 μM enzyme, 200 μM FPR
M. tuberculosis DprE1, sequence (P9WJF1 whole entry, looked up): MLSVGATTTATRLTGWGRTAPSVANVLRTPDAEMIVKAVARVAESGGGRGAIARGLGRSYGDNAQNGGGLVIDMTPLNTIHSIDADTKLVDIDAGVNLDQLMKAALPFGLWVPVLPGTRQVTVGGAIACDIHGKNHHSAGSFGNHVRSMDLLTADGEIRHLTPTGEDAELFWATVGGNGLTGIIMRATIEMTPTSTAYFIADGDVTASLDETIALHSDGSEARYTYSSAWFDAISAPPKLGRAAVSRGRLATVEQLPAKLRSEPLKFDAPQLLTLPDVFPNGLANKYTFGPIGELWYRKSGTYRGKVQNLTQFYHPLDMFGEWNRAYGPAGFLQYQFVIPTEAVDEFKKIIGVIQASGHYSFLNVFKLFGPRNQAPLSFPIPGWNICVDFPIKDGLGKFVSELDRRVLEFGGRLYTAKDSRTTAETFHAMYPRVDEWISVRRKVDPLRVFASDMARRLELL

in vitro [5] = conditions: human, microsomes
[6] = human
in vitro [7] = conditions: mouse, microsomes
M. tuberculosis H37Rv [8] = assay type: in vivo, BALB/c mice
M. marinum strain M [9] = assay type: in vivo, zebrafish (Danio rerio); conditions: 5 days treatment
[10] = system: M. tuberculosis clinical isolate 5253; assay: Drug susceptibility testing on solid Löwenstein-Jensen medium; assay type: cell-based; conditions: Mycobacterium tuberculosis; […]; solid Löwenstein-Jensen medium; read-out: MIC
[11] = system: M. tuberculosis clinical isolate 6374; assay: as above; assay type: cell-based; conditions: Mycobacterium tuberculosis; […]; solid Löwenstein-Jensen medium; read-out: MIC
[12] = system: M. tuberculosis clinical isolate 6418; assay: as above; assay type: cell-based; conditions: Mycobacterium tuberculosis; […]; solid Löwenstein-Jensen medium; read-out: MIC
[13] = system: M. tuberculosis clinical isolate 6341; assay: as above; assay type: cell-based; conditions: Mycobacterium tuberculosis; […]; solid Löwenstein-Jensen medium; read-out: MIC
[14] = system: M. tuberculosis clinical isolate 4328; assay: as above; assay type: cell-based; conditions: Mycobacterium tuberculosis; […]; solid Löwenstein-Jensen medium; read-out: MIC
M. tuberculosis H37Rv [15] = assay: as above; assay type: cell-based; conditions: Mycobacterium tuberculosis; H37Rv, Sensitive; solid Löwenstein-Jensen medium, 21-28 days; read-out: MIC
[16] = system: M. tuberculosis clinical isolate 5055; assay: as above; assay type: cell-based; conditions: Mycobacterium tuberculosis; […]; solid Löwenstein-Jensen medium; read-out: MIC
[17] = system: M. tuberculosis clinical isolate 7384; assay: as above; assay type: cell-based; conditions: Mycobacterium tuberculosis; […]; solid Löwenstein-Jensen medium; read-out: MIC
[18] = system: M. tuberculosis clinical isolate 6448; assay: as above; assay type: cell-based; conditions: Mycobacterium tuberculosis; […]; solid Löwenstein-Jensen medium; read-out: MIC
[19] = system: M. tuberculosis clinical isolate 6412; assay: as above; assay type: cell-based; conditions: Mycobacterium tuberculosis; […]; solid Löwenstein-Jensen medium; read-out: MIC
[20] = Table 1, H37Rv, REMA, read-out: MIC M. tuberculosis
[21] = Table S1, M. tuberculosis H37Rv, read-out: MIC
[22] = female, mouse, in vivo, po, 25 mg/kg

CO[C@H]1/C=C/O[C@@]2(C)Oc3c(C)c(O)c4c(O)c(c(/C=N/N5CCN(C)CC5)c(O)c4c3C2=O)NC(=O)/C(C)=C\C=C\[C@H](C)[C@H](O)[C@@H](C)[C@@H](O)[C@@H](C)[C@H](OC(C)=O)[C@@H]1C [RIF, rifampicin]
MIC99 (M. smegmatis GM22): 1 µg/mL (≈ 1.22 µM)
MIC99 (M. bovis BCG BN2): 0.0008 µg/mL (≈ 0.000972 µM)
MIC99 (M. abscessus 2005-0524): 6.25 µg/mL (≈ 7.59 µM)
MIC99 (M. vaccae ATCC 15483): 100 µg/mL (≈ 122 µM)
MIC99 (M. tuberculosis MDR_CHUV): > 100 µg/mL
MIC99 (C. glutamicum ATCC 13032): 0.004 µg/mL (≈ 0.00486 µM)
MIC99 (M. smegmatis mc^2155): 0.5 µg/mL (≈ 0.608 µM)
MIC99 (M. avium ATCC 15769): 25 µg/mL (≈ 30.4 µM)
MIC99 (M. tuberculosis H37Rv [1]; M. tuberculosis H37Rv): 0.001 µg/mL (≈ 0.00122 µM)
MIC99 (M. massiliense 2005-0484): 25 µg/mL (≈ 30.4 µM)
MIC99 (M. bolletii 1999-0888): 50 µg/mL (≈ 60.8 µM)
MIC99 (C. diphtheriae DSM 44123): 0.0008 µg/mL (≈ 0.000972 µM)
MIC99 (M. marinum Strain M [2]): 0.39 µg/mL (≈ 0.474 µM)
MIC99 (M. bovis BCG Pasteur): 0.001 µg/mL (≈ 0.00122 µM)

O=c1nc(N2CCN(CCC3CCCCC3)CC2)sc2c([N+](=O)[O-])cc(C(F)(F)F)cc12 [PBTZ129]
MIC (M. tuberculosis H37Rv [1]; [20]): 0.00019 µg/mL (≈ 0.000404 µM)
MIC (M. tuberculosis H37Rv [1]; [21]): 0.00019 µg/mL (≈ 0.000404 µM)

C[C@H]1COC2(CCN(c3nc(=O)c4cc(C(F)(F)F)cc([N+](=O)[O-])c4s3)CC2)O1 [BTZ043, 2-[(2S)-2-methyl-1,4-dioxa-8-azaspiro[4.5]dec-8-yl]-8-nitro-6-(trifluoromethyl)-4H-1,3-benzothia-zin-4-one]
MIC (M. smegmatis GM22; GM22, read-out: MIC for GM22): 0.05 µg/mL (≈ 0.116 µM)
MIC99 (M. smegmatis GM22): 0.031 µg/mL (≈ 0.0719 µM)
embryos affected (notochord defects, shortened Anterior-Posterior axis) (zebrafish embryos; 25 nM): 60.4%
embryos affected (notochord defects, shortened Anterior-Posterior axis) (zebrafish embryos; 50 nM): 76.7%
clearance on incubation with microsomes (in words) [3]: medium clearance values
MIC99 (M. bovis BCG BN2): >100 µg/mL
fold increased resistance conferred by the Cys387Ser mutation in DprE1 (M. bovis BCG BN2): > 10 000 fold
MIC99 (M. abscessus 2005-0524): > 100 µg/mL
MIC99 (M. vaccae ATCC 15483): > 100 µg/mL
Cmax (in vivo; [22]): 1920 ng/mL
half-life (in vivo; [22]): 1.67 h
k el (in vivo; [22]): 0.000116 s⁻¹
AUC (in vivo; serum, female mice, single dose 25 mg/kg by gavage, non-compartmental): 259829 µg·min/L
MIC99 (M. tuberculosis MDR_CHUV): 0.002 µg/mL (≈ 0.00464 µM)
MIC99 (C. glutamicum ATCC 13032): 0.063 µg/mL (≈ 0.146 µM)
TD50 (HepG2 human cell line; HepG2): 5 µg/mL
TD50 (HepG2 human cell line; HepG2, REMA, triplicate, toxic dose inhibiting 50% of the population): 5 µg/mL
TD99 (HepG2 human cell line; HepG2, REMA, triplicate, toxic dose inhibiting 99% of the population): 25 µg/mL
selectivity index (HepG2 human cell line; HepG2 cytotoxicity relative to MIC): > 10 000
MIC99 (M. smegmatis mc^2155): 0.001 µg/mL (≈ 0.00232 µM)
MIC99 (M. avium ATCC 15769): > 100 µg/mL
MIC99 (M. tuberculosis H37Rv [1]; M. tuberculosis H37Rv): 0.001 µg/mL (≈ 0.00232 µM)
NfnB-mediated reduction, species found by LC-MS [4]: almost entirely converted to its hydroxylamino analogue
concentration giving full inhibition of DprE1 (M. tuberculosis DprE1): 20 µM
microsomal CLint (in vitro [5]): 16 µL/min/mg
clearance on incubation with microsomes (in words) [6]: medium clearance values
MIC99 (M. massiliense 2005-0484): > 100 µg/mL
microsomal CLint (in vitro [7]): 12.2 µL/min/mg
MIC99 (M. bolletii 1999-0888): > 100 µg/mL
MIC99 (C. diphtheriae DSM 44123): 0.06 µg/mL (≈ 0.139 µM)
MIC99 (M. marinum Strain M [2]): 0.0007 µg/mL (≈ 0.00162 µM)
bacterial burden in the lungs lower than untreated control (M. tuberculosis H37Rv [8]; 50 mg/kg per day, 28 days): 0.6 logs
bacterial burden in the spleens lower than untreated control (M. tuberculosis H37Rv [8]; 50 mg/kg per day, 28 days): 1.7 logs
reduction of bacterial burden in the lungs and spleens (M. tuberculosis H37Rv [8]; dose escalation study, 50 mg/kg, four weeks): 1 log
effect on the infection in zebrafish embryos (M. marinum strain M [9]; 5 nM): no significant effect
bacterial burden in infected zebrafish embryos (fluorescence) (M. marinum strain M [9]; 25 or 50 nM): almost no bacteria were present
MIC99 (M. bovis BCG Pasteur): 0.001 µg/mL (≈ 0.00232 µM)

NNC(=O)c1ccncc1 [INH, isoniazid]
MIC [10]: > 20 µg/mL
MIC [11]: > 20 µg/mL
MIC [12]: > 20 µg/mL
MIC [13]: > 20 µg/mL
MIC [14]: 0.125 µg/mL (≈ 0.911 µM)
MIC (M. tuberculosis H37Rv [15]): 0.125 µg/mL (≈ 0.911 µM)
MIC [16]: > 20 µg/mL
MIC [17]: > 20 µg/mL
MIC [18]: > 20 µg/mL
MIC [19]: > 20 µg/mL

O=c1nc(N2CCN(CCCCOc3ccccc3)CC2)sc2c([N+](=O)[O-])cc(C(F)(F)F)cc12 [PBTZ137]
MIC (M. tuberculosis H37Rv [1]; [20]): 0.0015 µg/mL (≈ 0.00295 µM)
MIC (M. tuberculosis H37Rv [1]; [21]): 0.0015 µg/mL (≈ 0.00295 µM)

O=c1nc(N2CCN(CCCCc3ccccc3)CC2)sc2c([N+](=O)[O-])cc(C(F)(F)F)cc12 [PBTZ139]
MIC (M. tuberculosis H37Rv [1]; [20]): 0.00037 µg/mL (≈ 0.000751 µM)
MIC (M. tuberculosis H37Rv [1]; [21]): 0.00037 µg/mL (≈ 0.000751 µM)

CCCCCCCN1CCN(c2nc(=O)c3cc(C(F)(F)F)cc([N+](=O)[O-])c3s2)CC1 [PBTZ134]
MIC (M. tuberculosis H37Rv [1]; [20]): 0.00019 µg/mL (≈ 0.000414 µM)
MIC (M. tuberculosis H37Rv [1]; [21]): 0.00019 µg/mL (≈ 0.000414 µM)
NfnB-mediated reduction, species found by LC-MS [4]: as susceptible to NfnB-mediated reduction as BTZ043
reduction of bacterial burden in the spleens, fold more than BTZ043 (M. tuberculosis H37Rv [8]; 50 mg/kg per day, 28 days): 10 fold

NC(=O)N1c2ccccc2C=Cc2ccccc21 [Carbamazepine]
microsomal CLint (in vitro [5]): 0.5 µL/min/mg
microsomal CLint (in vitro [7]): 1.1 µL/min/mg
